Assay results as given in US6589956B2, “Benzenesulphonamide compounds” (Les Laboratoires Servier, priority 2001, dated 2003).

Assays:
[1] = system: platelets in human platelet-rich plasma (TXA2 agonist U46619-induced aggregation); test: Platelet aggregation in man induced by the TXA2 agonist U46619; assay type: cell-based; conditions: human PRP, U46619 1 μM, read-out: IC50, inhibition of platelet aggregation induced by the TXA2 agonist
Method: (§1) Venous blood is obtained from human volunteers who have not taken aspirin for at least 14 days prior to the experiment. The blood is removed over sodium citrate (0.109 M) (1 vol. of citrate over 9 vol. of blood). Platelet-rich plasma (PRP) is obtained by centrifugation (20° C.) at 200 g for 10 minutes. The number of platelets is on average. 250000 PL/mm^3. The PRP is stored at room temperature until the test and is used within 2 hours of having been taken. The TXA2 agonist U46619 is used at a concentration of 1 μM and 5-hydroxytryptamine is used at a concentration of 10 μM, the latter in the presence of 0.3 μM adenosine diphosphate and 1 μM adrenalin.

[2] = system: platelets in human platelet-rich plasma (5-hydroxytryptamine-induced aggregation); test: Platelet aggregation in man induced by 5-hydroxytryptamine; assay type: cell-based; conditions: human PRP, 5-hydroxytryptamine 10 μM in the presence of 0.3 μM adenosine diphosphate and 1 μM adrenalin, read-out: IC50, inhibition of platelet aggregation produced by 5-hydroxytryptamine
Method: as §1

IC50 [1]: 1500 nM | IC50 [2]: 3000 nM
SMILES: O=C(O)CCn1cc(CCN2CCN(c3nsc4ccccc34)CC2)c2cc(CCNS(=O)(=O)c3ccc(Cl)cc3)ccc21 [Example 6, 3-[3-{2-[4-(1,2-Benzisothiazol-3-yl)-1-piperazinyl]ethyl}-5-(2-{[(4-chlorophenyl)sulphonyl]amino}ethyl)-1H-indol-1-yl]propanoic Acid]
